IC50 data for 33 compounds are collected here from patent US9790229B2, “Bruton's tyrosine kinase inhibitors” (priority 2009, dated 2017).

Sequence of BTK (Q06187 whole entry): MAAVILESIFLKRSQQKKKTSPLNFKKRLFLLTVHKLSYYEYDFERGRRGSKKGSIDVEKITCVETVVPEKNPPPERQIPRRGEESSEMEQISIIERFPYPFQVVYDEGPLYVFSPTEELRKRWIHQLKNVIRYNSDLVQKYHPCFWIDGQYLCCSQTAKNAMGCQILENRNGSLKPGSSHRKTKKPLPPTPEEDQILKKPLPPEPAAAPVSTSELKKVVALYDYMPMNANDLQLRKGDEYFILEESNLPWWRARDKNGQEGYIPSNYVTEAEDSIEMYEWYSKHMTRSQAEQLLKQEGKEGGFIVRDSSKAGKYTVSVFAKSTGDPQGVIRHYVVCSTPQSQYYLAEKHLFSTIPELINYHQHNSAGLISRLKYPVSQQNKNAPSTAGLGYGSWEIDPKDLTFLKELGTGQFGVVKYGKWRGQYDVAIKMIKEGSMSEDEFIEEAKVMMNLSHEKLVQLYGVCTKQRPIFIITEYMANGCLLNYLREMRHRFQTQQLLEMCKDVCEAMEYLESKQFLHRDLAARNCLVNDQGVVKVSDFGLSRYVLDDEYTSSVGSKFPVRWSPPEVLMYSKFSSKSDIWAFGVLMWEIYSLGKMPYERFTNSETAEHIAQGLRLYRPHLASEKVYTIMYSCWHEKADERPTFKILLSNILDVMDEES

One test addresses BTK (Homo sapiens (Human), UniProt Q06187). The test can be described thus: In vitro BTK kinase assay: BTK-POLYGAT-LS ASSAY.
Details: not given
`O=C(Nc1cccc(C2CCCN(c3ncnc4[nH]ccc34)C2)c1)Nc1ccccc1N1CCCC1=O` (stereo not drawn) [compound 170] registered an IC50 of 100 to 999 nM.
Same read-out and setting: the same measure for `Cc1cc(NC(=O)Nc2cccc(C3CCCN(c4ncnc5[nH]ccc45)C3)c2)on1` (stereo not drawn) [Cmpd 66, 1-(3-(1-(7H-pyrrolo[2,3-d]pyrimidin-4-yl)piperidin-3-yl)phenyl)-3-(3-methylisoxazol-5-yl)urea]: 1000 to 10000 nM; for `COc1ccc(NC(=O)Nc2cccc(C3CCCN(c4ncnc5[nH]ccc45)C3)c2)cc1` (stereo not drawn) [compound 201]: 1000 to 10000 nM.
The same measure, in the same setting: the same measure for `O=C(Nc1cccc(C2CCCN(c3ncnc4[nH]ccc34)C2)c1)Nc1c(F)cccc1N1CCCC1=O` (stereo not drawn) [Cmpd 51, 1-(3-(1-(7H-pyrrolo[2,3-d]pyrimidin-4-yl)piperidin-3-yl)phenyl)-3-(2-fluoro-6-(2-oxopyrrolidin-1-yl)phenyl)urea]: 1000 to 10000 nM; for `O=C(Nc1cccc(C2CCCN(c3ncnc4[nH]ccc34)C2)c1)NC1CCC1` (stereo not drawn) [compound 204]: 1000 to 10000 nM; for `C[C@@H]1CCCN1c1ccccc1NC(=O)Nc1cccc(C2CCCN(c3ncnc4[nH]ccc34)C2)c1` (stereo partly drawn) [compound 159]: 100 to 999 nM.
Regarding `Nc1ncnc(N2CCC[C@@H](N3CC[C@@H](Nc4cc(Cl)cc(Cl)c4)C3=O)C2)c1Cl` [compound 354], the IC50 lay within 100 to 999 nM.
As to `O=C(NCC1CCCC1)Nc1cccc(C2CCCN(c3ncnc4[nH]ccc34)C2)c1` (stereo not drawn) [compound 166], the IC50 lay within 100 to 999 nM.
Same read-out and setting: the same measure for `O=C(Nc1cccc(C2CCCN(c3ncnc4[nH]ccc34)C2)c1)Nc1ccccc1N1CCCCC1` (stereo not drawn) [compound 175]: 100 to 999 nM.
The same measure, in the same setting: the same measure for `O=C(Nc1cccc(C2CN(c3ncnc4[nH]ccc34)CCN2CCO)c1)Nc1c(Cl)cccc1Cl` (stereo not drawn) [compound 134, 1-(2,6-Dichlorophenyl)-3-(3-(1-(2-hydroxyethyl)-4-(7H-pyrrolo[2,3-d]pyrimidin-4-yl)piperazin-2-yl)phenyl)urea]: 100 to 999 nM; for `Cc1ccnc(C)c1NC(=O)Nc1cccc(C2CCCN(c3ncnc4[nH]ccc34)C2)c1` (stereo not drawn) [compound 200]: 1000 to 10000 nM.
The same measure, in the same setting: the same measure for `CCOC(=O)c1cccc(NC2CCCN([C@@H]3CCCN(c4ncnc(N)c4F)C3)C2=O)c1` (stereo partly drawn) [compound 296, Ethyl 3-((3′R)-1′-(6-amino-5-fluoropyrimidin-4-yl)-2-oxo-1,3′-bipiperidin-3-ylamino) benzoate]: 1000 to 10000 nM.

Still in this test, the particulars now being: read-out: IC50 (10 uM ATP); 10 uM ATP; in vitro Btk kinase assay, Example 41.
Take `CN/C(=N/C#N)Nc1cccc(C2CCCN(c3ncnc4[nH]ccc34)C2)c1` (stereo not drawn) [Cmpd 77, (E)-1-(3-(1-(7H-pyrrolo[2,3-d]pyrimidin-4-yl)piperidin-3-yl)phenyl)-2-cyano-3-methylguanidine]: the IC50 was more than 10000 nM.
As to `FC(F)(F)c1cccnc1Nc1cccc(C2CCCN(c3ncnc4[nH]ccc34)C2)c1` (stereo not drawn) [compound 143, N-(3-(1-(7H-pyrrolo[2,3-d]pyrimidin-4-yl)piperidin-3-yl)phenyl)-3-(trifluoromethyl)pyridin-2-amine], the half-inhibitory concentration (IC50) is more than 10000 nM.
In the case of `S=C(Nc1ccccc1)Nc1cccc(C2CCCN(c3ncnc4[nH]ccc34)C2)c1` (stereo not drawn) [Cmpd 67, 1-(3-(1-(7H-pyrrolo[2,3-d]pyrimidin-4-yl)piperidin-3-yl)phenyl)-3-phenylthiourea], the IC50 was more than 10000 nM.
For the compound `Nc1ncnc(N2C[C@@H](F)C[C@@H](N3CCCC(Nc4cc(F)cc(Cl)c4)C3=O)C2)c1F` (stereo partly drawn) [compound 279, (3′R, 5′S)-1′-(6-Amino-5-fluoropyrimidin-4-yl)-3-(3-chloro-5-fluorophenylamino)-5′-fluoro-1,3′-bipiperidin-2-one], the IC50 was less than 100 nM.
Consider `O=C(Nc1cccc(C2CCCN(c3ncnc4[nH]ccc34)C2)c1)NC1CCCNC1` (stereo not drawn) [compound 232], for which the IC50 is more than 10000 nM.
Still for that read-out and setting: the value for `Nc1ncnc(N2C[C@@H](O)C[C@@H](N3CCCC(Nc4cc(Cl)cc(Cl)c4)C3=O)C2)c1F` (stereo partly drawn) [compound 283, (3′R,5′S)-1′-(6-Amino-5-fluoropyrimidin-4-yl)-3-(3,5-dichlorophenylamino)-5′-hydroxy-1,3′-bipiperidin-2-one] was less than 100 nM.
Same read-out and setting: the same measure for `O=C(Nc1cccc(C2CCCN(c3ncnc4[nH]ccc34)C2)c1)c1cccc(O)c1` (stereo not drawn) [compound 15, N-(3-(1-(7H-pyrrolo[2,3-d]pyrimidin-4-yl)piperidin-3-yl)phenyl)-3-hydroxybenzamide]: more than 10000 nM; for `O=C(Nc1cccc(C2CCCN(c3ncnc4[nH]ccc34)C2)c1)Nc1ccccc1N1C[C@@H](O)[C@@H](O)C1` (stereo partly drawn) [compound 148]: less than 100 nM; for `Cc1cc(NC(=O)Nc2cccc(C3CCCN(c4ncnc5[nH]ccc45)C3)c2)n(-c2ccccc2)n1` (stereo not drawn) [compound 227]: more than 10000 nM.
On the same count and under the same terms, the value for `Cc1cccc(Cl)c1NC(=O)Nc1cccc(C2CCCN(c3ncnc4[nH]ccc34)C2)c1` (stereo not drawn) [compound 238] was more than 10000 nM.
Turning to `O=C(Nc1cccc(C2CCCN(c3ncnc4[nH]ccc34)C2)c1)c1cccnc1` (stereo not drawn) [compound 12, N-(3-(1-(7H-pyrrolo[2,3-d]pyrimidin-4-yl)piperidin-3-yl)phenyl)nicotinamide], the IC50 was more than 10000 nM.
For the compound `O=C1[C@@H](Nc2cc(Cl)cc(Cl)c2)CCN1[C@@H]1CCCN(c2ncnc3[nH]ccc23)C1` [compound 357], the IC50 was less than 100 nM.
With `CN1CCCC(CNC(=O)Nc2cccc(C3CCCN(c4ncnc5[nH]ccc45)C3)c2)C1` (stereo not drawn) [compound 225], the IC50 is more than 10000 nM.
Still for that read-out and setting: the value for `CC(C)(C)Nc1c(Nc2cccc(C3CCCN(c4ncnc5[nH]ccc45)C3)c2)c(=O)c1=O` (stereo not drawn) [Cmpd 73, 3-(3-(1-(7H-pyrrolo[2,3-d]pyrimidin-4-yl)piperidin-3-yl)phenylamino)-4-(tert-butylamino)cyclobut-3-ene-1,2-dione] was more than 10000 nM.
Same read-out and setting: the same measure for `C[C@H]1CCN(c2ncnc(N)c2F)C[C@@H]1N1CCCC(Nc2cccc(Cl)c2)C1=O` (stereo partly drawn) [compound 282, trans-1′-(6-Amino-5-fluoropyrimidin-4-yl)-3-(3-chlorophenylamino)-4′-methyl-1,3′-bipiperidin-2-one]: less than 100 nM; for `Nc1ncnc(N2CCC[C@@H](N3CCCC(NCc4ccccc4)C3=O)C2)c1F` (stereo partly drawn) [compound 291, (3′R)-1′-(6-Amino-5-fluoropyrimidin-4-yl)-3-(benzylamino)-1,3′-bipiperidin-2-one]: more than 10000 nM.
`O=c1nc(Nc2cccc(C3CCCN(c4ncnc5[nH]ccc45)C3)c2)[nH]c2ccccc12` (stereo not drawn) [compound 119, 2-(3-(1-(7H-pyrrolo[2,3-d]pyrimidin-4-yl)piperidin-3-yl)phenylamino)quinazolin-4(1H)-one]: the IC50 is more than 10000 nM.
With `CC(=O)N1CCCC(CNC(=O)Nc2cccc(C3CCCN(c4ncnc5[nH]ccc45)C3)c2)C1` (stereo not drawn) [compound 240], the IC50 was more than 10000 nM.
Consider `Nc1ncnc(N2CCC[C@@H](N3CCCC(Nc4cc(F)cc(Cl)c4)C3=O)C2)c1F` (stereo in doubt) [compound 313, (3R,3′R)-1′-(6-Amino-5-fluoropyrimidin-4-yl)-3-(3-chloro-5-fluorophenylamino)-1,3′-bipiperidin-2-one], for which the half-inhibitory concentration (IC50) is less than 100 nM.
For the compound `C[C@H]1CCN(c2ncnc(N)c2F)C[C@@H]1N1CCCC(Nc2cc(Cl)cc(Cl)c2)C1=O` (stereo partly drawn) [compound 281, trans-1′-(6-Amino-5-fluoropyrimidin-4-yl)-3-(3,5-dichlorophenylamino)-4′-methyl-1,3′-bipiperidin-2-one], the IC50 was less than 100 nM.
Consider `O=C(NCC1CCNCC1)Nc1cccc(C2CCCN(c3ncnc4[nH]ccc34)C2)c1` (stereo not drawn) [compound 231], for which the IC50 was more than 10000 nM.
